The values that follow come from US11999956B2, “Targeted therapy composition and its use for suppressing breast cancer cell proliferation, migration or invasion” (NATIONAL CHENG KUNG UNIVERSITY, priority 2021, dated 2024).

The structures appear in SMILES notation.

One experiment concerns SKBR3 cells. The experiment can be described thus: IC50 of Metformin in SKBR3/Vec and SKBR3/siEMP3 cells. Type of experiment: cell-based, human. The note with it: 72 hours post treatment; SKBR3/siEMP3 vs SKBR3/Vec. From the text:
Please refer to FIGS. 12A to 12B. The potential impact of EMP3 on sensitivity to Metformin in SKBR3 cells in vitro was illustrated therein. […] That means knocking down of EMP3 raises survival rate of breast cancer cells upon treatment of Metformin, which may imply a desensitizing effect of EMP3 on breast cancer cells in upon Metformin treatment. […] As well-known in the field of endeavor, interference of cross-talk between AMPK and Wnt/β-catenin signaling pathways may decelerate cell growth of breast cancer cells. In example 7, the intervention level of Metformin to AMPK in SKBR3/Vec and SKBR3/siEMP3 cancer cells was verified.

For a further experiment, the system named is AMPK-α1 and AMPK-α2. The experiment can be described thus: Western blot, effect of Metformin on AMPK signaling pathway in SKBR3 cells. Type of experiment: cell-based, human. The procedure:
Cells were lyzed in a radioimmunoprecipitation assay (RIPA) lysis buffer (Thermo Fisher Scientific Inc., Waltham, MA) and protease inhibitors (Thermo Fisher Scientific Inc., Waltham, MA) were used for protein extraction. Briefly, a total of 30 μg of protein was prepared on a 6 to 12% SDS-PAGE and transferred to a 0.2 to 0.45 μm polyvinylidene difluoride membrane (Stratagene, La Jolla, CA) and blocked by 5% milk (non-fat milk) in Tris Buffered Saline Buffer with Tween 20 (TBST). The membrane was hybridized with primary antibody at 4° C. overnight. The following day, after being washed with TBST for three times, membranes were incubated with secondary antibodies (anti-rabbit or anti-mouse IgG antibody) for 1 hour at room temperature. Detection of protein bands was performed using enhanced chemiluminescence system (Amersham ECL Plus; GE Healthcare, Piscataway, NJ).
Please refer to FIGS. 12A to 12B. The potential impact of EMP3 on sensitivity to Metformin in SKBR3 cells in vitro was illustrated therein. […] That means knocking down of EMP3 raises survival rate of breast cancer cells upon treatment of Metformin, which may imply a desensitizing effect of EMP3 on breast cancer cells in upon Metformin treatment. […] As well-known in the field of endeavor, interference of cross-talk between AMPK and Wnt/β-catenin signaling pathways may decelerate cell growth of breast cancer cells. […]
In general terms: Immunoblotting shows a protein as a band on a membrane.

On to `CN(C)C(=N)N=C(N)N` [Metformin], for which the “IC50 values for Metformin in SKBR3/siEMP3 cells relative to vector control” value in the experiment on SKBR3 cells is on record as “higher”. For the same molecule, in the experiment with AMPK-α1 and AMPK-α2, the AMPK-α1 expression result is listed as “down-regulated” and the AMPK-α2 expression result was “down-regulated”.
